Source: ChEMBL document CHEMBL3616434, “Identification of Phenoxyalkylbenzimidazoles with Antitubercular Activity” (J Med Chem, 2015)
Converted amounts (≈) assume the structure as drawn. The source made the active and inactive calls. The calls are words filed in the database; no cut-off is given here.

How the values were obtained:
[1] = system: Mycobacterium tuberculosis; assay: Antitubercular activity against Mycobacterium tuberculosis H37Rv ATCC 25618 under aerobic condition after 5 days; type: functional; conditions: H37Rv ATCC 25618, 120 h
[2] = Cytotoxicity against African green monkey Vero cells after 2 days by luminescent assay; type: cell-based; conditions: chlorocebus sabaeus, read-out: TC50
[3] = Thermodynamic equilibrium solubility of the compound using 10 mM DMSO at pH 6; type: physicochemical; conditions: buffer, read-out: Therm_solubility
[4] = Metabolic stability of the compound in mouse liver microsomes assessed as compound turnover at 2 uM after 30 mins by LC-MS analysis; type: ADME; conditions: read-out: Drug metabolism
[5] = Metabolic stability of the compound in rat liver microsomes assessed as compound turnover at 2 uM after 30 mins by LC-MS analysis; type: ADME; conditions: read-out: Drug metabolism
[6] = Thermodynamic equilibrium solubility of the compound using 10 mM DMSO at pH 7.4; type: physicochemical; conditions: buffer, read-out: Therm_solubility
[7] = Thermodynamic equilibrium solubility of the compound using 10 mM DMSO at pH 2; type: physicochemical; conditions: buffer, read-out: Therm_solubility
[8] = Metabolic stability of the compound in human liver microsomes assessed as compound turnover at 2 uM after 30 mins by LC-MS analysis; type: ADME; conditions: read-out: Drug metabolism
[9] = Selectivity index, ratio of TC50 for African green monkey Vero cells to MIC for Mycobacterium tuberculosis H37Rv ATCC 25618
[10] = system: Mycobacterium tuberculosis; assay: Bactericidal activity against replicating Mycobacterium tuberculosis at 1 to 10 times MIC after 21 days; type: functional, organism-based
[11] = Fraction unbound in mouse plasma after 4.5 hrs by LC-MS/MS analysis; type: ADME, cell-free
MDCK = assay: Passive permeability of the compound from apical to basolateral direction in MDCK cells at 10 uM in presence of P-gp inhibitor; type: ADME, cell-based, Canis lupus familiaris; conditions: dog
Staphylococcus aureus = assay: Antimicrobial activity against Staphylococcus aureus after 2 days by serial proportion method; type: functional; conditions: 48 h
[12] = system: Mycolicibacterium smegmatis; assay: Antimicrobial activity against Mycobacterium smegmatis MC2 155 after 5 to 7 days by serial proportion method; type: functional; conditions: str. MC2 155
[13] = system: Mycobacterium tuberculosis; assay: Antitubercular activity against Mycobacterium tuberculosis after 21 to 28 days by serial proportion method; type: functional
Escherichia coli = assay: Antimicrobial activity against Escherichia coli after 1 day by serial proportion method; type: functional; conditions: 24 h

| SMILES | MIC [1] [µM] | CC50 at 48 h [2] [µM] | Ratio [9] | further results |
| --- | --- | --- | --- | --- |
| c1ccc(OCCCCn2cnc3ccccc32)cc1 | > 20 |  |  |  |
| Cc1nc2ccccc2n1CCCOc1ccccc1 | > 20 | > 50 |  |  |
| CCc1nc2ccc(C)cc2n1CCCCOc1ccccc1 | 0.27 (≈ 0.0833 µg/mL) | 18 | 67 | solubility thermodynamic [3]: 40 µg/mL (≈ 130 µM); metabolised at 0.5 h, 2 µM [4]: 99.9%; metabolised at 0.5 h, 2 µM [5]: 99.9%; solubility thermodynamic [6]: 10 µg/mL (≈ 32.4 µM); solubility thermodynamic [7]: 630 µg/mL (≈ 2040 µM); metabolised at 0.5 h, 2 µM [8]: 98.9% |
| CCc1nc2ccccc2n1CCCCOc1ccc2sc(C)nc2c1 | 1.5 (≈ 0.548 µg/mL) | 21 | 14 |  |
| CCc1nc2ccccc2n1CCCCNc1ccccc1 | 0.47 (≈ 0.138 µg/mL) | 42 | 89 | solubility thermodynamic [3]: 10 µg/mL (≈ 34.1 µM); Activity [10]: inactive; metabolised at 0.5 h, 2 µM [4]: 99.9%; metabolised at 0.5 h, 2 µM [5]: 99.9%; solubility thermodynamic [6]: < 1 µg/mL; fraction unbound at 4.5 h [11]: 0.045; permeability (MDCK): 21.5%; solubility thermodynamic [7]: 610 µg/mL (≈ 2080 µM); metabolised at 0.5 h, 2 µM [8]: 90.6% |
| CCc1nc2ccccc2n1CCCCOc1cccc(Cl)c1 | 0.88 (≈ 0.289 µg/mL) | 22 | 25 |  |
| CCc1nc2ccccc2n1CCCCOc1cccnc1 | > 20 | > 50 |  |  |
| CCc1nc2ccccc2n1CCCCOc1ccc(OC)cc1 | 1.2 (≈ 0.389 µg/mL) | 21 | 27 |  |
| CCc1nc2ccccc2n1CCCCOc1ccc(Cl)c(F)c1 | 1.6 (≈ 0.555 µg/mL) | 16 | 10 |  |
| CCc1nc2ccc(OC)cc2n1CCCCOc1ccccc1 | 0.9 (≈ 0.292 µg/mL) | 27 | 30 |  |
| CCc1nc2ccccc2n1CCCCOc1ccc(C#N)cc1 | 16 (≈ 5.11 µg/mL) | 27 | 1.7 |  |
| CCc1nc2ccccc2n1CCCCOc1ccncc1 | > 20 | > 50 |  |  |
| CCc1nc2ccccc2n1CC1COc2ccccc2O1 (centres undefined) | > 20 |  |  |  |
| CCc1nc2ccccc2n1CCCCOc1ccc(N2CCOCC2)cc1 | > 20 | 32 |  |  |
| CCc1nc2cnc(C)cc2n1CCCCOc1ccccc1 | 1.5 (≈ 0.464 µg/mL) | 71 | 47 |  |
| CCc1nc2ccccc2n1CCCCOCc1ccccc1 | 3.6 (≈ 1.11 µg/mL) | 32 | 8.9 |  |
| CCc1cc2ccccc2n1CCCCOc1ccc(C)c(Cl)c1 | > 20 |  |  |  |

| SMILES | MIC [1] [µM] | CC50 at 48 h [2] [µM] | Ratio [9] | further results |
| --- | --- | --- | --- | --- |
| CCc1nc2ccncc2n1CCCCOc1ccccc1 | > 20 |  |  |  |
| CCc1nc2ccccc2n1CCCCOc1ccc(C)c(C)c1 | 0.3 (≈ 0.0967 µg/mL) | 14 | 53 |  |
| CCc1nc2ccccc2n1CCCCOc1ccccc1 | 1.1 (≈ 0.324 µg/mL) | 21 | 19 | MIC99 (Staphylococcus aureus): > 100 µM; MIC99 [12]: > 100 µM; MIC99 [13]: 5 µM (≈ 1.47 µg/mL); MIC99 (Escherichia coli): > 100 µM |
| CCc1nc2ccc(C)cc2n1CCCCNc1ccc(C)c(Br)c1 | 0.11 (≈ 0.044 µg/mL) | 12 | 109 |  |
| CCc1nc2ccc(C)cc2n1CCCCNc1ccccc1 | 0.32 (≈ 0.0984 µg/mL) | 21 | 66 |  |
| CN1CCN(c2nc3ccccc3n2CCCCOc2ccccc2)CC1 | > 20 |  |  |  |
| CCc1nc2ccccc2n1CCCCSc1ccccc1 | 1.4 (≈ 0.435 µg/mL) | 31 | 22 | MIC99 (Staphylococcus aureus): > 100 µM; MIC99 [12]: > 100 µM; MIC99 [13]: 10 µM (≈ 3.1 µg/mL); MIC99 (Escherichia coli): > 100 µM |
| CCc1nc2cc(Cl)cnc2n1CCCCOc1ccccc1 | 6.1 (≈ 2.01 µg/mL) | 38 | 6.2 |  |
| CCc1nc2cnccc2n1CCCCOc1ccccc1 | > 20 |  |  |  |
| CCc1nc2ccccc2n1CCCCOc1cc(C)c(CN2CCOCC2)cc1C | 1.3 (≈ 0.548 µg/mL) | 48 | 15 |  |
| c1ccc(OCCCCn2c(-c3ccccc3)nc3ccccc32)cc1 | 16 (≈ 5.48 µg/mL) | 19 | 1.2 |  |
| CCc1nc2ccccc2n1CCCCOc1ccnc2ccccc12 | > 20 | > 50 |  |  |
| CCc1cc2ccccc2n1CCCCNc1ccc(C)c(Br)c1 | > 20 |  |  |  |
| CCc1nc2ccccc2n1CCCCOc1ccc(C)c(Cl)c1 | 0.23 (≈ 0.0789 µg/mL) | 14 | 61 |  |
| CC(=O)Nc1nc2ccc(C)cc2n1CCCCOc1ccc(C)c(Cl)c1 | 11 (≈ 4.24 µg/mL) | 8.3 | 0.8 |  |
| CCc1nc2cc(Cl)ccc2n1CCCCOc1ccccc1 | 0.3 (≈ 0.0987 µg/mL) | 16 | 53 | solubility thermodynamic [3]: < 1 µg/mL; metabolised at 0.5 h, 2 µM [4]: 99.8%; metabolised at 0.5 h, 2 µM [5]: 99.7%; solubility thermodynamic [6]: < 1 µg/mL; fraction unbound at 4.5 h [11]: 0.004; permeability (MDCK): 3.6%; solubility thermodynamic [7]: 670 µg/mL (≈ 2040 µM); metabolised at 0.5 h, 2 µM [8]: 98.5% |
| CCc1nc2ccc(C)cc2n1CCCCNc1ccc(C)cc1 | 0.15 (≈ 0.0482 µg/mL) | 20 | 133 |  |
